Patent publication US6620828B2, “Thiazole compounds and pharmaceutical compositions for inhibiting protein kinases and methods for their use” (Agouron Pharmaceuticals, Inc., priority 1999, dated 2003)
Values joined by “and” are separate entries in the source; they are usually repeats but may differ in a detail not shown here. Equal values may be shown once.

Columns and labels:
Format in all cases: biochemical
FGF-R1 = molecular target: T1, FGF-R1 (Homo sapiens, UniProt P11362, C488A/C584S/L457V); experiment: FGF-R spectrophotometric assay; details: Table 2
T1 construct: starting from the endogenous methionine residue 456 to glutamate 766; made in house; host or cells: baculovirus vector expression system
How it was run: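 Kinase domain (Met456–Glu766, baculovirus-expressed) used at 50 nM in a spectrophotometric assay run as for VEGF-R2. Substrates were 2 mM ATP and 15 mM poly(E4Y1).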

FAKcd409 = molecular target: T2, FAKcd409 (Homo sapiens, UniProt Q05397, P410T); experiment: FAK HTS assay; details: 10 uM compound, HTS Delphia assay; 10 µM
T2 construct: comprises residues methionine 409 to glutamate 689; made in house; host or cells: baculovirus vector expression system

CHK1 = molecular target: T3, CHK1 (Homo sapiens, UniProt O14757); experiment: CHK1 high-throughput screening; details: read-out: % inhibition @ 20 μM, Table 4, repeated entries per example
T3 sequence (O14757 1-476): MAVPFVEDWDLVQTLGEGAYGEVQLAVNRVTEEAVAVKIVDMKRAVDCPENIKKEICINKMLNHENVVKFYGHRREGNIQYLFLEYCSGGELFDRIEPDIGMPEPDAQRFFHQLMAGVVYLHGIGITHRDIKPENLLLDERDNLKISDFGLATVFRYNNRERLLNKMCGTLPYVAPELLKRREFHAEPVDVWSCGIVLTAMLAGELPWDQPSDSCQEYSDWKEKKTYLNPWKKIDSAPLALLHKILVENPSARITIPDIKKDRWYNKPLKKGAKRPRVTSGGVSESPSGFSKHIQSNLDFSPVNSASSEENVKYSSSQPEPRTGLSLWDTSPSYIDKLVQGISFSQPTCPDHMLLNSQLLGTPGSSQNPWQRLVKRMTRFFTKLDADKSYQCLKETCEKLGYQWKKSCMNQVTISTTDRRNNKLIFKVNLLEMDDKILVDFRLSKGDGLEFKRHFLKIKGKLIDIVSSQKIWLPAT

T2 sequence (Q05397 409-689 P410T): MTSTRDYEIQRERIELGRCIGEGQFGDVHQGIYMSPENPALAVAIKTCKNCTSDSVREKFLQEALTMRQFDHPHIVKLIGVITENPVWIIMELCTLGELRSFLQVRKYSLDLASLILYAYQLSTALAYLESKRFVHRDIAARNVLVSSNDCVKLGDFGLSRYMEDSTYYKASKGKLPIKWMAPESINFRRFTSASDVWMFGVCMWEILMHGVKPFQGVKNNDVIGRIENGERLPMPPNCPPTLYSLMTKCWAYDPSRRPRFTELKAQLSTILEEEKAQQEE
T1 sequence (P11362 456-766 L457V/C488A/C584S): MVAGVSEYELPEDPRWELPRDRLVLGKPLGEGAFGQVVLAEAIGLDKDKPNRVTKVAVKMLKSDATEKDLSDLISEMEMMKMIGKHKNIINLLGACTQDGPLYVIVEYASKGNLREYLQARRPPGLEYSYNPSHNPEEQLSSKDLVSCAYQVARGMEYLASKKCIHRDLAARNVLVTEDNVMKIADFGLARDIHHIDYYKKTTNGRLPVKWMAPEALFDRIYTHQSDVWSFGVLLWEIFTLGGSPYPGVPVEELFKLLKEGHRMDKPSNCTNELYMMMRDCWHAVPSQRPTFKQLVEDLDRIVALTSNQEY

Compound	Ki (FGF-R1) [nM]	% inhibition of FAK (FAKcd409)	inhibition at 20 µM (CHK1) [%]
COc1cc(Nc2nc(N)c(-c3nc(-c4cccc(O)c4)cs3)s2)cc(OC)c1OC [A(17), 3-[4′-Amino-2′-(3,4,5-trimethoxy-phenylamino)-[2,5′]bithiazolyl-4-yl]-phenol]	2400	–	–
CCCNc1nc(N)c(-c2nc(-c3cccc(O)c3)cs2)s1 [A(29), 3-(4′-Amino-2′-propylamino-[2,5′]bithiazolyl-4-yl)-phenol]	–	−6% and −11% and −8%	7.1
